The values below are quoted from earlier work in patent US20180194836A1, “PREVENTION OF METASTASIS AND RECURRENCE AFTER PRIMARY CANCER TREATMENT” (ENCYT TECHNOLOGIES, INC., priority 2014, published 2018).

Data set [1] has as its system premetastatic niche formation. The conditions noted are these: disruption of niche formation; cited from earlier work.
Data set [2] concerns colon cancer. The conditions noted are these: cited from earlier work.

On to bevacizumab: antiangiogenic agent, for which, in data set [1], the metastatic colonization entry was “prevented metastatic colonization”. Moreover, in data set [2] (during the year on treatment, started 29-50 days post-operatively, with adjuvant chemotherapy), the relapse result is “delayed relapse”. In data set [2] (versus chemotherapy-only group), the overall survival result was “no net benefit”.
